Data taken from patent US5593989A, “Tetracyclic 1,4-oxazine compounds” (Adir et Compagnie, priority 1994, dated 1997).

Assays:
[1] = tested on: cloned rat D3 receptors vs D2 receptors; assay: D3 vs D2 binding selectivity, cloned rat receptors
Description: (§1) in vitro: by the technique of binding to human and rat D2 and D3 receptors (expressed independently and in a stable manner in CHO cells);
(§2) The affinity of the compounds for human or rat D3 and D2 receptors (expressed independently and in a stable manner in CHO cells) was determined in membrane preparations using [^125 I]-iodosulpiride as radioligand (Sokoloff et al, op. cit.), raclopride (10 μM) determining the non-specific binding. The results are expressed as IC50. The selectivity is expressed by the ratio of IC50 D2 to IC50 D3.

[2] = tested on: cloned human D3 receptors vs D2 receptors; assay: D3 vs D2 binding selectivity, cloned human receptors
Description: as §1, §2

[3] = tested on: D3 receptor; assay: Hypothermia induced in rats by 7-OH-DPAT; assay type: in vivo, male Wistar rats; details: for ΔT °C.: means ± sem
Description: in vivo: by the capacity of the molecules to modulate hypothermia induced in rats by the D3 dopaminergic agonist, 7-OH-DPAT, control of the body temperature being dependent upon the post-synaptic D3 receptor (M. J. Millan, op. cit.).
The tests were carried out on male Wistar rats weighing 200-250 g, placed in individual cages with free access to food and water. The products were dissolved in distilled water to which several drops of lactic acid are added. The injections were effected in a volume of 1.0 ml/kg by the subcutaneous route. The doses are expressed in base. The rectal temperature of the rats was recorded using a digital thermal probe (Millan et al., J.P.E.T., 1993, 264, p. 1364-1376). The rats were injected with the compound or vehicle, then put back in their cages for 30 minutes. The rats were then given an injection of 7-OH-DPAT (0.16 mg/kg) and put back in their cages. Thirty minutes later, the rectal temperature was measured and the difference to basal values (ΔT° C.) was determined. The inhibitory dose (95% confidence limit) for reducing the effect of 7-OH-DPAT by 50% was calculated according to Finney's method (Statistical Method in Biological Assays, 2nd ed., Hafner Publishing, New York, 1964).

[4] = Forced-swimming test (Porsolt); assay type: in vivo; details: for Period of immobility: means ± sem
Description: The procedure has been described in detail by Porsolt et al. (1978).
The experiment was carried out over two days, the test taking place on the second day. On the first day, the animal was placed for 15 minutes in a glass cylinder (30 cm×.O slashed.20 cm) filled with water, the temperature of which is maintained at 25° C. On the second day, the day of the test, the product or the solvent was administered to the animal by the subcutaneous route 30 minutes before the beginning of the test, At T0, the animal was placed in a cylinder filled with water for the 5 minutes the test lasted. The total period (expressed in seconds) of immobility of the animal was measured.
The inhibitory dose (95% confidence limit) for reducing immobility time by 50% was calculated according to Finney's method (Statistical Method in Biological Assays, 2nd ed., Hafner Publishing, New York, 1964).

Question: Which “selectivity for D3 receptors compared with D2 receptors, ratio of IC50 D2 to IC50 D3” value (“selectivity … ratio of IC50 D2 to IC50 D3” for short) [1] does the source give for `CCCN1CCO[C@@H]2c3cc4c(cc3CC[C@H]21)CCO4` (relative stereo) [Example 1, trans-3,4,4a,5,6,8,9,11b-octahydrofuro[2,3-b]1,4-oxazino[3,2-h]4-propyl-2H-naphthalene] here?
Answer: The value was 44.

Question: And the “selectivity … ratio of IC50 D2 to IC50 D3” value [2]?
Answer: Its value is 45.

Question: And the “inhibitory dose (ID50) for reducing the effect of 7-OH-DPAT by 50%” value ([3]; 95% confidence limit in brackets, rats)?
Answer: Its value is 1.6 (0.7-3.7) mg/kg s.c.

Question: What about the “ΔT °C.” value ([3]; Ex 1 0.16 mg/kg s.c., then 7-OH-DPAT 0.16 mg/kg) of the same compound?
Answer: Its value is -1.8 ± 0.2 °C.

Question: What about the “ΔT °C.” value ([3]; Ex 1 0.63 mg/kg s.c., then 7-OH-DPAT 0.16 mg/kg) of the same compound?
Answer: The value was -1.3 ± 0.2 °C.

Question: What about the “ΔT °C.” value ([3]; Ex 1 2.5 mg/kg s.c., then 7-OH-DPAT 0.16 mg/kg, * p < 0.05 versus vehicle/7-OH-DPAT) of the same compound?
Answer: Its value is “+0.2 ± 0.2 °C”.

Question: And the “ΔT °C.” value ([3]; Ex 1 10.0 mg/kg s.c., then 7-OH-DPAT 0.16 mg/kg, * p < 0.05 versus vehicle/7-OH-DPAT)?
Answer: Its value is -0.1 ± 0.2 °C.

Question: And the Period of immobility ([4]; dose 0.63 mg/kg s.c.)?
Answer: Its Period of immobility is 200.8 ± 17.4 s.

Question: What about the Period of immobility ([4]; dose 1.25 mg/kg s.c.) of the same compound?
Answer: Its Period of immobility is 107.1 ± 39.7 s.

Question: What about the Period of immobility ([4]; dose 2.5 mg/kg s.c., * p < 0.05) of the same compound?
Answer: The Period of immobility was 63.1 ± 12.4 s.

Question: And the Period of immobility ([4]; dose 10.0 mg/kg s.c., * p < 0.05)?
Answer: Its Period of immobility is 28.2 ± 18.1 s.

Question: What about the ED50 ([4]; sc, 95% confidence limit in brackets, read-out: inhibitory dose (ID50) for reducing immobility time by 50%) of the same compound?
Answer: Its ED50 is 1.8 mg/kg.

Question: With `CCCN(CCC)C1CCc2ccc(O)cc2C1` (stereo not shown) [Example 7-OH-DPAT, reference compound] as the compound, how does the “selectivity … ratio of IC50 D2 to IC50 D3” value [1] read?
Answer: The value was 53.

Question: And the “ΔT °C.” value ([3]; injection 1 vehicle, injection 2 7-OH-DPAT 0.16 mg/kg s.c.)?
Answer: Its value is -1.4 ± 0.1 °C.

Question: With `CCCN(CCC)[C@@H]1CCc2c(OC)cccc2[C@@H]1C` [(+)UH 232] as the compound, how does the “selectivity … ratio of IC50 D2 to IC50 D3” value [2] read?
Answer: The value was 4.8.

Question: For `CCCN[C@@H]1CCc2c(OC)cccc2[C@@H]1C` [AJ 76], which “selectivity … ratio of IC50 D2 to IC50 D3” value [2] is on record?
Answer: Its value is 2.2.
